US20190307843A1, “SINGLE DOSE METHODS FOR PREVENTING AND TREATING FUNGAL INFECTIONS” (Cidara Therapeutics, Inc., priority 2016, published 2019)
Converted amounts (≈) assume the structure as drawn. Like-named read-outs stand apart in the source and are kept apart here. Starred links: 1 amine or outer side, 2 acyl side, 3 side chain; linkers in the order of their positions; H or OH if unused. Positions of bridges follow the written chain, without caps; N, C: chain ends. Non-standard residues stand in square brackets, D forms with d. Residues, ends and D or L forms follow the SMILES beside them. *: point of attachment. hTyr(3S-OH,4S-OH,3'-OSO3H) = N[C@H](C(=O)O)[C@H](O)[C@@H](O)c1ccc(O)c(OS(=O)(=O)O)c1; Orn(4R-OH,5R-OH) = O=C([C@H](C[C@@H](O)[C@@H](O)N[*:3])N[*:1])[*:2]; Pro(3S-OH,4S-Me) = C[C@H]1CN[C@H](C(=O)O)[C@H]1O; X1 = CCCCCOc1ccc(-c2cc(-c3ccc(C(=O)*)cc3)no2)cc1; Gln(3R-OH) = NC(=O)C[C@@H](O)[C@H](N)C(=O)O; Hyp = O=C(O)[C@@H]1C[C@@H](O)CN1

Columns and labels:
[1] = tested on: A. fumigatus strain AF293; assay: Murine model of pulmonary aspergillosis (Example 13), survival
[2] = tested on: A. fumigatus AF293; assay: Murine model of pulmonary aspergillosis (Example 19), terminal lung burden; format: in vivo, Aspergillus fumigatus; conditions: Micafungin 5 mg/kg IP Day −1
Experimental: A secondary endpoint for the study was terminal lung tissue burden. Immediately following confirmation of death, carcasses were frozen at −20° C. prior to tissue dissection and processing. The frozen carcasses were thawed at room temperature, the lungs removed and placed into pre-weighed bead-beating tubes containing 2 mL of PBS and subjected to mechanical disruption. Organ homogenates were diluted further in PBS and quantitatively cultured for A. fumigatus onto SABC and incubated at 30° C. for 24-48 hours.
2. Lung tissue burden data were analysed using the non-parametric Kruskal-Wallis test and if this was statistically significant all pairwise comparisons were analyzed (Conover-Inman).

[3] = tested on: Candida auris strains; assay: Candida auris antifungal susceptibility testing (CLSI M27-A3), 38 strains; format: cell-based; conditions: for MIC: Candidozyma auris, read-out: MIC

Compound: CCCCCOc1ccc(-c2cc(-c3ccc(C(=O)N[C@H]4C[C@@H](O)[C@@H](O)NC(=O)[C@@H]5[C@@H](O)[C@@H](C)CN5C(=O)[C@H]([C@H](O)CC(N)=O)NC(=O)[C@H]([C@H](O)[C@@H](O)c5ccc(O)c(OS(=O)(=O)O)c5)NC(=O)[C@@H]5C[C@@H](O)CN5C(=O)[C@H]([C@@H](C)O)NC4=O)cc3)no2)cc1 [Micafungin, micafungin] (X1-[Orn(4R-OH,5R-OH)]T[Hyp][hTyr(3S-OH,4S-OH,3'-OSO3H)][Gln(3R-OH)][Pro(3S-OH,4S-Me)]; lactam 1-C)
- Mean Survival ([1]; Micafungin 2 mg/kg IP Day 0): 75.3 h
- Median Survival ([1]; Micafungin 2 mg/kg IP Day 0): 73.3 h
- Mean Survival ([1]; Micafungin 2 mg/kg IP Day −1): 64.7 h
- Median Survival ([1]; Micafungin 2 mg/kg IP Day −1): 64.7 h
- Group Geometric mean (lung burden) [2]: 6.61 × 10^3 CFU/g
- Log10 Group Geometric mean (lung burden) [2]: 3.82 CFU/g
- Log10 reduction from vehicle control [2]: 0.35 CFU/g
- number of resistant isolates [3]: 4
- MIC ([3]; 24 h, strain 1 VPCI 669/P/12, 24 h): 0.125 µg/mL (≈ 0.0984 µM)
- MIC ([3]; 24 h, strain 2 VCPI 671/P/12, 24 h): 0.125 µg/mL (≈ 0.0984 µM)
- MIC ([3]; 24 h, strain 3 VCPI 674/P/12, 24 h): 0.06 µg/mL (≈ 0.0472 µM)
- MIC ([3]; 24 h, strain 4 VCPI 683/P/12, 24 h): 0.125 µg/mL (≈ 0.0984 µM)
- MIC ([3]; 24 h, strain 5 VCPI 692/P/12, 24 h): 0.125 µg/mL (≈ 0.0984 µM)
- MIC ([3]; 24 h, strain 6 VCPI 712/P/12, 24 h): 0.125 µg/mL (≈ 0.0984 µM)
- MIC ([3]; 24 h, strain 7 VCPI 471/P/13, 24 h): 0.25 µg/mL (≈ 0.197 µM)
- MIC ([3]; 24 h, strain 8 VCPI 475/P/13, 24 h): 0.125 µg/mL (≈ 0.0984 µM)
- MIC ([3]; 24 h, strain 9 VCPI 478/P/13, 24 h): 0.125 µg/mL (≈ 0.0984 µM)
- MIC ([3]; 24 h, strain 10 VCPI 479/P/13, 24 h): 0.125 µg/mL (≈ 0.0984 µM)
- MIC ([3]; 24 h, strain 11 VCPI 480/P/13, 24 h): 0.125 µg/mL (≈ 0.0984 µM)
- MIC ([3]; 24 h, strain 12 VCPI 482/P/13, 24 h): 0.125 µg/mL (≈ 0.0984 µM)
- MIC ([3]; 24 h, strain 13 VCPI 483/P/13, 24 h): 0.125 µg/mL (≈ 0.0984 µM)
- MIC ([3]; 24 h, strain 14 VCPI 1130/P/13, 24 h): 0.125 µg/mL (≈ 0.0984 µM)
- MIC ([3]; 24 h, strain 15 VCPI 1132/P/13, 24 h): 0.125 µg/mL (≈ 0.0984 µM)
- MIC ([3]; 24 h, strain 16 VCPI 1133/P/13, 24 h): 16 µg/mL (≈ 12.6 µM)
- MIC ([3]; 24 h, strain 17 VCPI 105/P/14, 24 h): 0.125 µg/mL (≈ 0.0984 µM)
- MIC ([3]; 24 h, strain 18 VCPI 107/P/14, 24 h): 0.06 µg/mL (≈ 0.0472 µM)
- MIC ([3]; 24 h, strain 19 VCPI 510/P/14, 24 h): 0.125 µg/mL (≈ 0.0984 µM)
- MIC ([3]; 24 h, strain 20 VCPI 511/P/14, 24 h): 0.125 µg/mL (≈ 0.0984 µM)
- MIC ([3]; 24 h, strain 21 VCPI 512/P/14, 24 h): 0.125 µg/mL (≈ 0.0984 µM)
- MIC ([3]; 24 h, strain 22 VCPI 513/P/14, 24 h): 0.125 µg/mL (≈ 0.0984 µM)
- MIC ([3]; 24 h, strain 23 VCPI 514/P/14, 24 h): 0.25 µg/mL (≈ 0.197 µM)
- MIC ([3]; 24 h, strain 24 VCPI 250/P/14, 24 h): 0.125 µg/mL (≈ 0.0984 µM)
- MIC ([3]; 24 h, strain 25 VCPI 265/P/14, 24 h): 16 µg/mL (≈ 12.6 µM)
- MIC ([3]; 24 h, strain 26 VCPI 266/P/14, 24 h): 0.125 µg/mL (≈ 0.0984 µM)
- MIC ([3]; 24 h, strain 27 VCPI 462/P/14, 24 h): 16 µg/mL (≈ 12.6 µM)
- MIC ([3]; 24 h, strain 28 VCPI 463/P/14, 24 h): 0.125 µg/mL (≈ 0.0984 µM)
- MIC ([3]; 24 h, strain 29 VCPI 467/P/14, 24 h): 0.25 µg/mL (≈ 0.197 µM)
- MIC ([3]; 24 h, strain 31 VCPI 478/P/14, 24 h): 0.5 µg/mL (≈ 0.394 µM)
- MIC ([3]; 24 h, strain 32 VCPI 518/P/14, 24 h): 0.25 µg/mL (≈ 0.197 µM)
- MIC ([3]; 24 h, strain 33 VCPI 550/P/14, 24 h): 0.25 µg/mL (≈ 0.197 µM)
- MIC ([3]; 24 h, strain 34 VCPI 714/P/14, 24 h): 0.125 µg/mL (≈ 0.0984 µM)
- MIC ([3]; 24 h, strain 35 VCPI 717/P/14, 24 h): 0.125 µg/mL (≈ 0.0984 µM)
- MIC ([3]; 24 h, strain 36 VCPI 1060/P/14, 24 h): 0.25 µg/mL (≈ 0.197 µM)
- MIC ([3]; 24 h, strain 37 VCPI 74/P/15, 24 h): 0.25 µg/mL (≈ 0.197 µM)
- MIC ([3]; 24 h, strain 38 VCPI 213/P/15, 24 h): 0.25 µg/mL (≈ 0.197 µM)
- MIC ([3]; 24 h): 16 µg/mL (≈ 12.6 µM)
- MIC ([3]; 48 h, strain 1 VPCI 669/P/12, 48 h): 0.25 µg/mL (≈ 0.197 µM)
- MIC ([3]; 48 h, strain 2 VCPI 671/P/12, 48 h): 0.25 µg/mL (≈ 0.197 µM)
- MIC ([3]; 48 h, strain 3 VCPI 674/P/12, 48 h): 0.125 µg/mL (≈ 0.0984 µM)
- MIC ([3]; 48 h, strain 4 VCPI 683/P/12, 48 h): 0.25 µg/mL (≈ 0.197 µM)
- MIC ([3]; 48 h, strain 5 VCPI 692/P/12, 48 h): 0.25 µg/mL (≈ 0.197 µM)
- MIC ([3]; 48 h, strain 6 VCPI 712/P/12, 48 h): 0.125 µg/mL (≈ 0.0984 µM)
- MIC ([3]; 48 h, strain 7 VCPI 471/P/13, 48 h): 0.25 µg/mL (≈ 0.197 µM)
- MIC ([3]; 48 h, strain 8 VCPI 475/P/13, 48 h): 0.25 µg/mL (≈ 0.197 µM)
- MIC ([3]; 48 h, strain 9 VCPI 478/P/13, 48 h): 0.125 µg/mL (≈ 0.0984 µM)
- MIC ([3]; 48 h, strain 10 VCPI 479/P/13, 48 h): 0.125 µg/mL (≈ 0.0984 µM)
- MIC ([3]; 48 h, strain 11 VCPI 480/P/13, 48 h): 0.125 µg/mL (≈ 0.0984 µM)
- MIC ([3]; 48 h, strain 12 VCPI 482/P/13, 48 h): 0.125 µg/mL (≈ 0.0984 µM)
- MIC ([3]; 48 h, strain 13 VCPI 483/P/13, 48 h): 0.125 µg/mL (≈ 0.0984 µM)
- MIC ([3]; 48 h, strain 14 VCPI 1130/P/13, 48 h): 0.125 µg/mL (≈ 0.0984 µM)
- MIC ([3]; 48 h, strain 15 VCPI 1132/P/13, 48 h): 0.125 µg/mL (≈ 0.0984 µM)
- MIC ([3]; 48 h, strain 16 VCPI 1133/P/13, 48 h): > 16 µg/mL
- MIC ([3]; 48 h, strain 17 VCPI 105/P/14, 48 h): 0.125 µg/mL (≈ 0.0984 µM)
- MIC ([3]; 48 h, strain 18 VCPI 107/P/14, 48 h): 0.06 µg/mL (≈ 0.0472 µM)
- MIC ([3]; 48 h, strain 19 VCPI 510/P/14, 48 h): 0.125 µg/mL (≈ 0.0984 µM)
- MIC ([3]; 48 h, strain 20 VCPI 511/P/14, 48 h): 0.125 µg/mL (≈ 0.0984 µM)
- MIC ([3]; 48 h, strain 21 VCPI 512/P/14, 48 h): 0.125 µg/mL (≈ 0.0984 µM)
- MIC ([3]; 48 h, strain 22 VCPI 513/P/14, 48 h): 0.25 µg/mL (≈ 0.197 µM)
- MIC ([3]; 48 h, strain 23 VCPI 514/P/14, 48 h): 0.25 µg/mL (≈ 0.197 µM)
- MIC ([3]; 48 h, strain 24 VCPI 250/P/14, 48 h): 0.125 µg/mL (≈ 0.0984 µM)
- MIC ([3]; 48 h, strain 25 VCPI 265/P/14, 48 h): > 16 µg/mL
- MIC ([3]; 48 h, strain 26 VCPI 266/P/14, 48 h): 0.125 µg/mL (≈ 0.0984 µM)
- MIC ([3]; 48 h, strain 27 VCPI 462/P/14, 48 h): > 16 µg/mL
- MIC ([3]; 48 h, strain 28 VCPI 463/P/14, 48 h): 0.125 µg/mL (≈ 0.0984 µM)
- MIC ([3]; 48 h, strain 29 VCPI 467/P/14, 48 h): 0.25 µg/mL (≈ 0.197 µM)
- MIC ([3]; 48 h, strain 31 VCPI 478/P/14, 48 h): 0.5 µg/mL (≈ 0.394 µM)
- MIC ([3]; 48 h, strain 32 VCPI 518/P/14, 48 h): 0.5 µg/mL (≈ 0.394 µM)
- MIC ([3]; 48 h, strain 33 VCPI 550/P/14, 48 h): 0.5 µg/mL (≈ 0.394 µM)
- MIC ([3]; 48 h, strain 34 VCPI 714/P/14, 48 h): 0.25 µg/mL (≈ 0.197 µM)
- MIC ([3]; 48 h, strain 35 VCPI 717/P/14, 48 h): 0.125 µg/mL (≈ 0.0984 µM)
- MIC ([3]; 48 h, strain 36 VCPI 1060/P/14, 48 h): 0.25 µg/mL (≈ 0.197 µM)
- MIC ([3]; 48 h, strain 37 VCPI 74/P/15, 48 h): 0.25 µg/mL (≈ 0.197 µM)
- MIC ([3]; 48 h, strain 38 VCPI 213/P/15, 48 h): 0.25 µg/mL (≈ 0.197 µM)
- MIC ([3]; 48 h): > 16 µg/mL
